Columns and labels:
[1] = biological target: T1, ALDH1A3 (Homo sapiens, UniProt P47895); assay: ALDH1A3 cellular assay (ALDEFLUOR) in WM266.4 melanoma cells; type: cell-based; conditions: WM266.4 cells; 60 min incubation; percentage of ALDH-positive cells
T1 sequence (P47895 1-512): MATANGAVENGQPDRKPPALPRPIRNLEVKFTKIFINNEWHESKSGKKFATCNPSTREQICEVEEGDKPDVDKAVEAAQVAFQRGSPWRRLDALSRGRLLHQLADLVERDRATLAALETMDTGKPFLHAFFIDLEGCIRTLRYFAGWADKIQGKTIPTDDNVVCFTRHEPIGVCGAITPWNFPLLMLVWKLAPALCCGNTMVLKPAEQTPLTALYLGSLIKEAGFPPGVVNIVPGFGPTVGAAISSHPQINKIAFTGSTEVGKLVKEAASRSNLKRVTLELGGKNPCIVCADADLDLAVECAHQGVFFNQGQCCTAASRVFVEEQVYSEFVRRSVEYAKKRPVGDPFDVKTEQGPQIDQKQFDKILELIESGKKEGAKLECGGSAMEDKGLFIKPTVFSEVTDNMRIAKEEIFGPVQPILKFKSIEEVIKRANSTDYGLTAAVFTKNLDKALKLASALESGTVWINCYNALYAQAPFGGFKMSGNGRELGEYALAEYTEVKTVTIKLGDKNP
Text: Materials: WM266.4 cells were procured from ATCC. (WM266-4 is a metastatic human melanoma cell line.) The ALDEFLUOR™ Assay kit (cat. no. 01700) and Aldefluor buffer (cat. no. 01702) were procured from StemCell Technologies. Dulbecco's Modified Eagle Medium (DMEM), FluoroBrite DMEM, Glutamax and Hoechst 33342 were purchased from ThermoFisher. Verapamil was obtained from Fluorochem. FBS was obtained from Sigma. Echo Qualified 384-well low-dead-volume microplate and Echo Qualified 384-well polypropylene microplate were purchased from Labcyte, and the Microclear black sterile polystyrene microplate from Greiner Bio-One.
Method: Intracellular inhibition of ALDH1A3 was assessed using the ALDEFLUOR™ Assay kit. The activated ALDEFLUOR™ reagent, BODIPY-aminoacetaldehyde (BAAA), is a fluorescent non-toxic substrate for ALDH enzymes, which freely diffuses into intact and viable cells. In the presence of ALDH enzyme activity, BAAA is converted into BODIPY-aminoacetate (BAA), which is retained inside the cells. The amount of fluorescent reaction product is proportional to the ALDH activity in the cells and is measured using an imaging cytometer. Active efflux of the reaction product is inhibited by an efflux inhibitor (Verapamil) in the ALDEFLUOR™ Assay Buffer.
A frozen vial of cells was recovered into a T225 flask containing DMEM, high glucose, 10% FBS, 1% glutamax, 1% HEPES. The following day, media was changed and cells were ready for assay from 72 hours after recovery. Cells were transferred into FluoroBrite DMEM (plus 10% FBS, 1% glutamax and 1% HEPES) and diluted to 2.5×10^5 cells/mL. 30 μL of cells were added to each well to give 7500 cells/well and then incubated overnight at 37° C., 5% CO2. After overnight incubation, the media was aspirated and replaced by 20 μL substrate/Hoechst buffer solution. Each plate requires 9 mL of solution comprising, 9 mL ALDEFLUOR assay buffer, 18 μL BAAA substrate (final concentration 500 nM), 4.5 μL Hoechst 33342 (final concentration 5 μg/mL) and 4.5 μL Verapamil (final concentration 50 μM). Compounds were prepared for dosing using the Echo acoustic dispenser by aliquoting into a source plate and dosed directly onto the cell assay plate to give a 10 point dose response per compound ranging from 10 μM to 0.0005 μM final concentration in 3-fold dilution steps. Plates were then incubated for 60 minutes at 37° C., 5% CO2. The buffer was then aspirated and cells washed twice in ice-cold PBS. Plates were kept on ice and 30 μL of cold Aldefluor buffer with 50 μM verapamil dispensed per well. The plates were then imaged using the CellInsight fluorescent microscope. Hoechst fluorescence in the 405 nm channel indicated the nuclear area and this was used to define nuclei and then the surrounding cellular area. Fluorescence in the 488 nm channel of the defined cellular area indicates ALDH1A3 activity. The percentage of cells positive for ALDH activity was plotted versus compound concentration to generate EC50 values using curve fitting parameters defined in Dotmatics software.

[2] = biological target: T1, ALDH1A3; assay: Primary biochemical assay, NAD(P)H-Glo Detection System; design: His-tag; made in house; host or cells: E. coli Rosetta (DE3); conditions: 30 min pre-incubation, propionaldehyde and NAD at Km
Text: Cloning: Open reading frames corresponding to the protein coding sequences of full length human ALDH1A1 (Uniprot ID P00352), ALDH1A2 (094788) and ALDH1A3 (P47895) were polymerase chain reaction (PCR) amplified from human cDNA and inserted into the multi-cloning sites of the commercially available (Novagen) E. coli expression vectors pET47b (ALDH1A1, EcoRI restriction site; ALDH1A2, BamHI and EcoRI sites) or pET28a (ALDH1A3, NdeI and BamHI sites), using standard molecular genetic techniques. Recombinant DNA products were sequence verified prior to use in expression studies.
Expression: Expression constructs were transformed into the E. coli strain Rosetta (DE3) (Merck) and individual colonies used to inoculate 10 mL lysogen broth (LB) medium supplemented with kanamycin and chloramphenicol at 50 μg/mL and 34 μg/mL, respectively. Cultures were grown to saturation overnight at 37° C., prior to being used to sub-inoculate fresh 1 L LB medium cultures (plus antibiotics, as before). 1 L cultures were grown at 37° C., 200 rpm, throughout the day until the optical density at 600 nm (OD600) reached ˜0.8, at which point growth temperature was reduced to 18° C. and 1 mM isopropyl β-d-1-thiogalacto pyranoside (IPTG) added to induce protein expression.
Cultures were left overnight (at least 16 h) under these conditions and the following day harvested by centrifugation (4000 G, 10 minutes). Culture supernatant was discarded and cell pellets stored at −80° C. until further processing.
Purification: Cell pellets were thawed on ice, re-suspended in Ni Affinity Buffer A (20 mM HEPES pH 7.5, 300 mM NaCl, 20 mM imidazole, 1 mM tris(2-carboxyethyl)phosphine (TCEP)) with protease inhibitors (cOmplete Ultra protease inhibitor, Roche), and lysed by sonication. Lysates were clarified by centrifugation at 18,000 G, 4° C., for 40 minutes, and loaded directly onto a pre-equilibrated (Buffer A) 5 mL HisTrap Fast Flow column (GE Healthcare) by way of an AKTA Fast Protein Liquid Chromatography (FPLC) system. The column was sequentially treated with 6 column volumes (CV) 100% Buffer A, 8 CV of 90% Buffer A:10% Buffer B (20 mM 4-(2-hydroxyethyl)-1-piperazineethanesulfonic acid (HEPES) pH 7.5, 300 mM NaCl, 500 mM imidazole, 1 mM TCEP) and finally a linear gradient from 10-70% Buffer B over 8 CV to elute recombinant His-tagged protein. Relevant fractions (as measured by 280 nm absorbance) collected during elution were pooled and subjected to further purification by size exclusion chromatography (Superdex 200 26/600, GE Healthcare, running buffer 20 mM 2-(carbamoylmethylamino)ethanesulfonic acid (ACES) pH 7.5, 1 mM TCEP). Relevant fractions from this step were pooled, aliquoted, and stored at −80° C. until required for compound profiling assays.
Materials: ALDH2 was purchased from Abnova. Tris(hydroxymethyl)aminomethane (Tris) was purchased from MP Biomedicals. TCEP, ethylenediaminetetraacetic acid (EDTA), propionaldehyde, DMSO and Tween-20 were purchased from Sigma. Nicotinamide adenine dinucleotide (NAD) was obtained from Abcam. The NAD(P)H-Glo™ Detection System was purchased from Promega. White, non-binding surface, 384 well plates were supplied by Corning (#3574).
Method: Inhibition of ALDH1A3 was assessed using the NAD(P)H-Glo™ Detection System (Cat. No. G9062) from Promega. This assay detects the production of NADH from NAD by ALDH1A3 via the coupled enzymatic conversion of a proluciferin reductase substrate to generate a luminescent signal. Inhibition of ALDH1A3 by small molecule inhibitors will result in reduction or abrogation of luminescence signal increase above background. Inhibition of ALDH1A1, ALDH1A2 and ALDH2 (selectivity assays) were assessed using the same assay.
Compounds were dosed into Corning 384 well assay plates using an Echo acoustic dispenser to give 10 point curves in a 3-fold dilution series. Compounds were dispensed from a 20 mM DMSO stock and initially screened at a top concentration of 20 μM (ALDH1A3) or 250 μM (ALDH1A1, ALDH1A2 & ALDH2). […]

O=C1CCc2cc(NC(=O)c3ncccc3-c3cccc(F)c3)ccc2N1 [ALDHI-1020, 3-(3-fluorophenyl)-N-(2-oxo-3,4-dihydro-1H-quinolin-6-yl)pyridine-2-carboxamide] was tested, and the IC50 [1] was 1 to 10 µM and the IC50 [2] was 1 to 10 µM.

— US20240174634A1, “Aldehyde Dehydrogenase Inhibitors and Their Therapeutic Use” (priority 2020, published 2024)
